The values that follow come from ChEMBL document CHEMBL1144863, “Novel histone deacetylase inhibitors: design, synthesis, enzyme inhibition, and binding mode study of SAHA-based non-hydroxamates” (Bioorg Med Chem Lett, 2003).

A value given as a limit tells only on which side of the number the result lay.

Test [1] deals with Histone deacetylase. The experiment in a line: In vitro inhibitory activity against histone deacetylase (HDAC) isolated from HeLa nuclear extract. In kind it is protein assay, Homo sapiens.
In test [2] the target is Histone deacetylase (Homo sapiens) (UniProt Q13547+O15379+Q9UBN7+Q92769+Q9UQL6+Q8WUI4+Q9BY41+Q96DB2+P56524+Q9UKV0+Q969S8). To be noted: at 100 µM.
Description: In vitro inhibitory activity against histone deacetylase (HDAC) isolated from HeLa nuclear extract at a concentration of 100 uM

For orientation: IC50 means the point on the concentration scale where inhibition reaches its midpoint. As a reminder, the inhibition is the drop in the measured response relative to a control, in per cent. High values mean a response far below the control, low ones a response near the control. As for `O=C(CCCCCCC(=O)OCCO)Nc1ccccc1`, the IC50 in test [1] was greater than 100 µM. The same compound showed an inhibition in test [2] of 5%.

Consider `O=C(CCCCCCNC(=O)C(Cl)(Cl)Cl)Nc1ccccc1`, for which the half-maximal inhibitory concentration (IC50) in test [1] is greater than 100 µM. For the same compound, the inhibition in test [2] turned out to be 4%.

In test [1], `O=C(CCCCCCC(=O)Nc1nccs1)Nc1ccccc1` came in with an IC50 greater than 100 µM. In addition, in test [2], the inhibition stood at 9%.

In test [1], `O=C(CBr)NCCCCC(=O)Nc1ccccc1` yielded an IC50 of 121 µM. Besides, the inhibition in test [2] turned out to be 47%.

On to `NNC(=O)NCCCCCC(=O)Nc1ccccc1`, for which the IC50 in test [1] is 150 µM. Besides, in test [2], the inhibition was determined as 35%.

For `NNC(=O)NCCCCCCC(=O)Nc1ccccc1`, the concentration for half-maximal inhibition (IC50) in test [1] came to 650 µM. Also, the inhibition in test [2] was 18%.

The compound `CCOC(=O)NCCCCCCC(=O)Nc1ccccc1` registered an IC50 in test [1] greater than 100 µM. Besides, the inhibition in test [2] turned out to be 19%.

`O=C(CBr)NCCCCCCC(=O)Nc1ccccc1`: the concentration for half-maximal inhibition (IC50) in test [1] was 14 µM. Moreover, in test [2], the inhibition was determined as 79%.

In test [1], `O=C(CCCCCCC(=O)c1ccccn1)Nc1ccccc1` displayed a half-maximal inhibitory concentration (IC50) greater than 100 µM. For the same compound, in test [2], the inhibition turned out to be 15%.

In turn, `C#CCN(CC#C)CCCCCCC(=O)Nc1ccccc1` registered an IC50 in test [1] greater than 100 µM. In addition, in test [2], the inhibition stood at 8%.

Turning to `O=C(CBr)NCCCCCCCC(=O)Nc1ccccc1`, the half-inhibitory concentration (IC50) in test [1] stood at 300 µM. The inhibition in test [2] was 40%.

In turn, `COC(=O)NCCCCCCC(=O)Nc1ccccc1` yielded an IC50 in test [1] greater than 100 µM. Moreover, in test [2], the inhibition is 12%.

Compound `C#CCNCCCCCCC(=O)Nc1ccccc1` yielded a half-inhibitory concentration (IC50) in test [1] greater than 100 µM. In test [2], this compound came in with an inhibition of 16%.

Compound `O=C(CBr)NCCCCCC(=O)Nc1ccccc1` gave an IC50 in test [1] of 17 µM. Moreover, in test [2], the inhibition was found to be 78%.

`O=C(CCCCCCNC(=O)C(F)(F)F)Nc1ccccc1`: the half-inhibitory concentration (IC50) in test [1] was greater than 100 µM. Also, the inhibition in test [2] was 3%.

For the compound `NC(=O)NCCCCCCC(=O)Nc1ccccc1`, in test [1], the IC50 was greater than 100 µM. The inhibition in test [2] amounted to 7%.

As to `O=C(CCCCCC/C(=N/O)c1ccccn1)Nc1ccccc1`, the IC50 in test [1] was greater than 100 µM. The inhibition in test [2] was found to be 0%.

The compound `O=C(CCCCCCC(=O)Nc1ccccn1)Nc1ccccc1` had an IC50 in test [1] greater than 100 µM. For the same compound, the inhibition in test [2] came out at 8%.

`O=C(CCCCCCC(=O)Nc1ccccc1)NCCO` returned an IC50 in test [1] greater than 100 µM. Also, in test [2], the inhibition was found to be 4%.

In test [1], `NCCNC(=O)CCCCCCC(=O)Nc1ccccc1` yielded a half-inhibitory concentration (IC50) greater than 100 µM. The inhibition in test [2] stood at 3%.

The compound `Nc1ccccc1NC(=O)CCCCCCC(=O)Nc1ccccc1` yielded an IC50 in test [1] of 120 µM. The compound further returned an inhibition in test [2] of 48%.

The compound `NNC(=O)NCCCCC(=O)Nc1ccccc1` came in with an IC50 in test [1] greater than 1000 µM. The compound further yielded an inhibition in test [2] of 12%.
